Reference: patent US4610976A, “Porcine GRF” (The Salk Institute for Biological Studies, priority 1983, dated 1986)

Tested on: cells of rat pituitary glands
Assay: in vitro growth hormone release assay in rat pituitary cell monolayer cultures (ir GH by radioimmunoassay)
Format: cell-based
Conditions: equimolar concentrations, side-by-side with synthetic hGRF(1-44)-NH2; incubation 3 to 4 hours; ir GH in culture medium
Procedure: To determine the effectiveness of the peptide to promote the release of growth hormone, in vitro assays are carried out using synthetic hGRF(1-44)-NH2 in side-by-side comparison with equimolar concentrations of the extracted and purified pGRF(1-44) of Example II and of a GRF Reference Standard having a known effectiveness to promote the release of growth hormone from pituitary cells. The GRF Reference standard is described and defined in Brazeau, et al., Endocrinology, Vol. 110, A538(1982) and is an amount of a preparation of rat hypothalamic origin that produces a half-maximal response in terms of GH release in a pituitary cell monolayer bioassay. Cultures are used which include cells of rat pituitary glands removed some four to five days previously. Both cultures of a defined standard medium and cultures which are considered optimal for the secretion of growth hormone are used for the comparative testing, in the general manner described in Brazeau, et al. Regulatory Peptides, 1, 255, 1981. Incubation with the substance to be tested is carried out for 3 to 4 hours, and aliquots of the culture medium are removed and processed to measure their contents in inmunoreactive GH(ir GH) by a well-characterized radioimmunoassay.

## Tyr-Ala-Asp-Ala-Ile-Phe-Thr-Asn-Ser-Tyr-Arg-Lys-Val-Leu-Gly-Gln-Leu-Ser-Ala-Arg-Lys-Leu-Leu-Gln-Asp-Ile-Met-Ser-Arg-Gln-Gln-Gly-Glu-Arg-Asn-Gln-Glu-Gln-Gly-Ala-Arg-Val-Arg-Leu (YADAIFTNSYRKVLGQLSARKLLQDIMSRQQGERNQEQGARVRL; printed: Tyr-Ala-Asp-Ala-Ile-Phe-Thr-Asn-Ser-Tyr-Arg-Lys-Val-Leu-Gly-Gln-Leu-Ser-Ala-Arg-Lys-Leu-Leu-Gln-Asp-Ile-Met-Ser-Arg-Gln-Gln-Gly-Glu-Arg-Asn-Gln-Glu-Gln-Gly-Ala-Arg-Val-Arg-Leu) [pGRF(1-44), 44-residue polypeptide isolated from purified extracts of porcine hypothalami]
  intrinsic biological activity to promote the release of growth hormone, compared with synthetic hGRF(1-44)-NH2: full intrinsic biological activity of the synthetic peptide
  potency to promote the release of growth hormone, compared with synthetic hGRF(1-44)-NH2: close to the same potency
